Patent US12264185B2, “Stabilized BCL9 peptides for treatment of aberrant Wnt signaling” (WntRx Pharmaceuticals Inc., priority 2015, dated 2025)
Values joined by “and” are separate entries in the source; they are usually repeats but may differ in a detail not shown here. Identical values can stand only once. Bridge positions count the residues as written; N and C are the ends. Square brackets hold non-standard residues; d marks the D form. Peptide text beside a SMILES is read from it. 2Nal = N[C@@H](Cc1ccc2ccccc2c1)C(=O)O; R5 = C=CCCC[C@@](C)(N)C(=O)O; S5 = C=CCCC[C@](C)(N)C(=O)O; βAla = NCCC(=O)O

Assays:
[1] = Pharmacokinetics in male ICR mice; conditions: mouse, plasma, 5 mg/kg
Protocol: The tail vein was used for i.v. injections. […] Following injections, blood samples were obtained via the retro-orbital vein at 5 min, 1, 2, 4, 6, 8, 12, and 24 hours postdose. Plasma was obtained from the blood samples following mixing with sodium heparin and centrifugation.
LC analysis was done using an Agilent 100 HPLC. MS analysis was done using an AB Sciex API 4000. Calibration standards were prepared by serial dilution.
The maximum observed concentration (Cmax), terminal half-life (T1/2), total body clearance (CL), volume of distribution (Vz), area under the curve from the time of dosing to the last measurable concentration (AUC0-t), area under the curve from the time of dosing extrapolated to infinity (AUC0-inf), and bioavailability were calculated using noncompartmental analysis modules in the FDA-certified pharmacokinetic program WinNonlin Professional v5.2 (Pharsight).
Briefly, the mice were administered 1 mg/kg or 5 mg/kg intravenously, or 5 mg/kg intraperitoneally. Blood samples were collected at 15 min, 1, 2, 3, 6, 8, 12, and 24 hours post administration.

FIG. 34B = experiment: FIG. 34B
Protocol: Table printed on a drawing sheet, FIG. 34B
The patent's description of the figure: FIG. 34A and FIG. 34B show PK data for WX-035 administered to female balb/c mice (n=3). The mice were either intravenously or intraperitoneally administered with 30 mg/kg WX-035. Blood samples from each mouse were collected at 5 min, 15 min, 30 min, 1, 2, 4, 6, 8, 12, 24, 36, 48, and 72 hours post administration.
First reader's note: Substance, dose (30 mg/kg IV and IP) and species (female Balb/c nude mice, N=3) are printed in the title of FIG. 34A on the same sheet; the label F is printed once, between the mIL/min/kg row and the % row, so the mIL/min/kg row may in fact belong to CL.

[2] = Pharmacokinetics in female balb/c mice; type: in vivo; conditions: mouse, plasma, 30 mg/kg intravenous or intraperitoneal
Protocol: The peptide solution was prepared at the fixed concentration of 0.5 mg/ml, and then suitable amounts were administered according to the dose. The same mixed solvent was used as a vehicle treatment. Blood samples (300 IA) were collected periodically from the retro-orbital vein at 0.25, 1, 2, 4, 6, 7, 12, and 24-hours post-dose (and 36 and 48 hours post-dose for intramuscular, subcutaneous, and intraperitoneal routes), followed by plasma separation for pending bioanalysis by LC-MS/MS. Standard PK parameters were calculated by non-compartmental analysis modules in WinNonlin Professional (v5.2, Pharsight, FDA-certified).
Two different administration routes, intravenous or intraperitoneal, were compared using 30 mg/kg WX-035. […] As observed with male ICR mice, the half-life of WX-035 in this experiment was more than 9 hours.

[3] = Toxicity study of WX-035 in balb/c nude mice (H&E of major organs); type: in vivo; conditions: 30 mg/kg or 40 mg/kg i.v., 7 consecutive days
Protocol: To assess the toxicity effect of WX-035, balb/c nude mice were administered with a vehicle, or 30 mg/kg, or 40 mg/kg WX-035, following the procedure described in Example 5.6. At the end of the study, the mice were sacrificed and major organs were harvested for H&E staining.

CT26.WT cells = type: cell-based
Protocol: One of the stabilized polypeptides generated in Example 10 was tested in a cell viability assay and compared against WX-035. WX-037 was selected for this comparison study. The cell viability assay was performed with CT26.WT cells (ATCC), following the procedures described in Example 2. Briefly, 4000 cells per well of each plate were seeded with 50 μL opti-MEM medium. Each polypeptide, WX-035 or WX-037, was diluted with 2% FBS containing opti-MEM medium using 1 μL of 200× concentrated polypeptide in 99 μL of the medium. Each stock solution was diluted for testing a wide range of concentrations. 50 μL of 2× concentrated polypeptide was added to each well of the plate. Three days after the polypeptide addition, the viability of cells was measured using CellTiterGlo assay, according to the manufacturer's protocol.

Colo320DM cells = experiment: cells; conditions: Colo320DM cells
Protocol: Colo320DM cells were selected for this assay as the proliferation of this particular cell line is dependent on BCL9 and β-catenin. ICG001, a known Wnt/β-catenin small molecule inhibitor, was used as a positive control. The cell viability at each treatment condition was analyzed using CellTiterGlo luminescent cell viability assay (Promega) according to the manufacturer's protocols.
Following the procedure described in Example 2, the ability of WX-035 to inhibit cell growth was tested in a cell viability assay using Colo320DM cells.

CT26 cells = experiment: CT26 syngeneic mouse model of colon cancer (Balb/c); type: in vivo, mice
Protocol: The syngeneic mouse model of colon cancer using CT26 was then assessed. Male Balb/c mice were injected subcutaneously in the right flank with 5×10^4 CT26 cells each at approximately 5 weeks of age. […] Eight mice were included in each treatment group.
The whole blood was taken from each mouse. Lymphocytes were purified from the blood samples by Ficoll, and the cells were stained with fluorescent anti-CD4 antibody. Data were measured by flow cytometry.
As described above, the whole blood was taken from each mouse. Lymphocytes were purified from blood by Ficoll, and the cells were stained with fluorescent anti-CD8 antibody. Data were measured by flow cytometry.
To further assess whether WX-024 is capable of modulating a tumor microenvironment, tumor and blood samples were collected in anticoagulation tubes at the end of the study. Single cells separation was performed and then cells were stained for FACS analysis. For cell surface staining, CD45-PerCP-Cy5, CD4-FITC, CD8-PE-Cy7, and CD25-PE were used. For intranuclear staining, cells were permeabilized overnight and then stained with Foxp3-APC for 60 minutes.
The in vivo efficacy of WX-035 in treating a cancer was assessed in a syngeneic mouse model, following the procedures described in Example 5.3. Trametinib, a known MEK inhibitor, was used as a comparison. Briefly, balb/c mice were inoculated with CT26 and treatment started when tumor volume reached to about 100 mm^3. The mice were then divided into three groups and began administered with a vehicle, 40 mg/kg WX-035, or 1 mg/kg trametinib for 7 consecutive days.
At the end of the study described in Example 9.2, a tumor sample from each mouse was collected to assess the effect of WX-035 in modulating T cell activation. The FACS analysis of each tumor sample was performed following the procedure described in Example 5. A shown in FIG. 36A, treatment with WX-035 reduced the total amount of CD45^+ cells. […] Likewise, Foxp3^+ CD25^+ T cells were reduced by WX-035 treatment (FIG. 36C). […] Furthermore, by increasing the ratio of cytotoxic T cells over regulatory T cells, WX-035 may induce a microenvironment that favors an immune reaction beneficial for tumor treatment. Of note, the samples collected from this experiment were also assessed for LGR5 expression.

FIG. 33B = experiment: FIG. 33B
Protocol: Table printed on a drawing sheet, FIG. 33B
The patent's description of the figure: FIG. 33A and FIG. 33B show PK data for WX-035 administered to male ICR mice (an outbred strain). The mice were treated with either 1 mg/kg, or 5 mg/kg WX-035 intravenously or 5 mg/kg WX-035 intraperitoneally.
First reader's note: Plasma PK parameters by route and dose; according to the description the animals are male ICR mice.

B16F10 cells = experiment: B16F10 syngeneic model in C57BL/6 mice; type: in vivo; conditions: 12 days
Protocol: C57BL/6 mice were inoculated with B16F10 cells. Female C57BL/6 mice aged 4-5 weeks were inoculated with B16F10 cells (2×10^5 cells in 0.05 ml per mouse) in the right flank. When the average tumor size of the mice reached 100 mm^3, the mice were divided into two groups (N=6). […] The treatment was intraperitoneally administered daily for 14 consecutive days.
The treatment was intraperitoneally administered daily for 12 consecutive days. At the end of the treatment, the mice were sacrificed and tumor and blood samples were collected in anticoagulation tubes. Single cell separation was performed for each sample and then stained for FACS analysis. For cell surface staining, CD45-PerCP-Cy5, CD4-FITC, CD8-PE-Cy7, and CD25-PE were used. The tumor samples were then stained with either an anti-CD4 antibody or an anti-CD8 antibody to assess the presence of T cells in the tumor samples. The tumor samples were also stained with an anti-CD194 antibody and anti-CD196 antibody to assess the presence of T helper 17 cells in the tumor samples.
The process of constructing WX-039 is described in Example 10. C57BL/6 mice were inoculated with B16F10 cells. […] The treatment was intraperitoneally administered daily for 12 consecutive days. At the end of the treatment, the mice were sacrificed and tumor and blood samples were collected in anticoagulation tubes. Tumor cells collected from the experiment were stained as described above and also with anti-CD205 antibody to assess whether WX compounds are capable of modulating dendritic cells.
The ability of WX-039 to suppress tumor growth was assessed in the animal model described in Example 5.4. Briefly, C57BL/6 mice were inoculated with B16 cells. Female C57BL/6 mice aged 5 weeks were inoculated with B16F10 cells (2×10^5 cells in 0.05 ml per mouse) in the right flank. When the average tumor size of the mice reached 100 mm^3, the mice were divided into two groups (N=3). The first group was administered 60 mg/kg WX-039 while the second group was treated with a vehicle. The treatment was intraperitoneally administered daily for 12 consecutive days.

[4] = Pharmacokinetics in female balb/c nude mice; type: in vivo; conditions: mouse, plasma, sc, 10 mg/kg subcutaneously
Protocol: The pharmacokinetic profiles of the four additional polypeptides constructed in Example 10 were assessed following the procedures described in Example 5.1. WX-029 and WX-036 were administered 1 mg/kg intravenously to female balb/c nude mice. Blood samples were collected at 15 min, 1, 2, and 4 hours post administration. FIG. 39A and FIG. 39B summarize the plasma concentration and the pharmacokinetic profiles calculated for WX-029. FIG. 40A and FIG. 40B summarize the plasma concentration and the pharmacokinetic profiles calculated for WX-036.
Similarly, WX-039 and WX-040 were also tested in female balb/c nude mice and assessed for their pharmacokinetic profiles. WX-039 was administered at 5 mg/kg intravenously, 5 mg/kg intraperitoneally, or 10 mg/kg subcutaneously. WX-040 was administered at 30 mg/kg intravenously or 30 mg/kg intraperitoneally. Blood samples were collected at 15 min, 1, 2, 4, 8, 24, 36, 48, and 72 hours post administration. FIG. 41A and FIG. 41B summarize the plasma concentration and the pharmacokinetic profiles calculated for WX-039. FIG. 42A and FIG. 42B summarize the plasma concentration and the pharmacokinetic profiles calculated for WX-040.

[5] = 20 mg/kg WX-024 or 60 mg/kg WX-039 i.p. daily

CC[C@H](C)[C@@H]1NC(=O)[C@@](C)(NC(=O)[C@H](CCCNC(=N)N)NC(=O)[C@H](CC(C)C)NC(=O)[C@]2(C)CCCC=CCCC[C@@](C)(NC(C)=O)C(=O)N[C@@H](CC(C)C)C(=O)N[C@@H](CCC(N)=O)C(=O)N2)CCCC=CCCC[C@@](C)(C(=O)N[C@@H](CC(C)C)C(=O)N[C@@H](Cc2ccc3ccccc3c2)C(=O)NCCC(=O)NCCC(N)=O)NC(=O)[C@H](CCCNC(=N)N)NC(=O)[C@H](CCC(N)=O)NC1=O [WX-035, Xaa1LQXaa2LRXaa3IQRXaa4L] (Ac-[R5]LQ[S5]LR[S5]IQR[S5]L[2Nal][βAla][βAla]-NH2; staple 1-4, 7-11)
half-life [1]: > 4 h | AUCINF | (FIG. 34B): 996.181 µg·h/mL and 997.708 µg·h/mL | AUClast | (FIG. 34B): 987.148 µg·h/mL and 996.029 µg·h/mL | CL | (FIG. 34B): 0.502 mL/min/kg | CMAX | (FIG. 34B): 102393 ng/mL | MRTINF | hr (FIG. 34B): 5.50 h | TERMINAL t1/2 | hr (FIG. 34B): 9.81 h and 7.03 h | TMAX | hr (FIG. 34B): 2.00 h | Vss | (FIG. 34B): 0.166 L/kg | half-life [2]: > 9 h | H&E staining of major organs [3]: did not cause any significant abnormality to major organs | IC50 (CT26.WT cells): 1860 nM | effect on cell viability / cell growth (Colo320DM cells): improved IC50 value as compared to WX-024 | Foxp3+ CD25+ T cells in tumor (CT26 cells; WX-035, 7 days): reduced | LGR5 expression in intestine samples (CT26 cells; WX-035, 7 days): reduced | total amount of CD4+ or CD8+ T cells in tumor (CT26 cells; WX-035, 7 days): reduced | total amount of CD45+ cells in tumor (CT26 cells; WX-035, 7 days): reduced | ratio between cytotoxic T cells (CD8+) and Foxp3+ regulatory T cells (CT26 cells; WX-035, 7 days, vs vehicle): increased | average tumor growth inhibition (CT26 cells; WX-035 i.p. for 7 consecutive days, day 7 / end of study): 88.44% | F | % (FIG. 33B): 72%

CC[C@H](C)[C@@H]1NC(=O)[C@@](C)(NC(=O)[C@H](CCCNC(=N)N)NC(=O)[C@H](CC(C)C)NC(=O)[C@]2(C)CCCC=CCCC[C@@](C)(NC(=O)[C@H](CCCNC(=N)N)NC(C)=O)C(=O)N[C@@H](CC(C)C)C(=O)N[C@@H](CCC(N)=O)C(=O)N2)CCCC=CCCC[C@@](C)(C(=O)N[C@@H](CC(C)C)C(=O)N[C@@H](Cc2ccc3ccccc3c2)C(=O)NCCC(=O)NCCC(N)=O)NC(=O)[C@H](CCCNC(=N)N)NC(=O)[C@H](CCC(N)=O)NC1=O [WX-039, RXaa1LQXaa2LRXaa3IQRXaa4L] (Ac-R[R5]LQ[S5]LR[S5]IQR[S5]L[2Nal][βAla][βAla]-NH2; staple 2-5, 8-12)
T helper 17 cells in tumor (B16F10 cells; [5]): increased | dendritic cells (CD205+) in tumor (B16F10 cells; [5]): capable of suppressing dendritic cells present in tumor | body weight change (B16F10 cells; 60 mg/kg i.p. daily): no substantial body weight change | tumor growth compared to vehicle (B16F10 cells; 60 mg/kg i.p. daily): reduced tumor growth | half-life [4]: ~52 h
